Our source for the IC50 values is US20070015723A1, “Antiviral oligonucleotides having a conserved G4 core sequence” (priority 1992, published 2007).

pIC50: −log10 of the molar value. A value given as a limit tells only on which side of the number the result lay.

Data set [1] deals with phospholipase A2 from Agkistrodon piscivorus piscivorus.
The test system of data set [2] is Naja naja naja phospholipase A2.

On to “ISIS 3196: GGG T GGG T ATA G AAG G GCT CC, P = S, SEQ ID NO 47 (GGGTGGGTATAGAAGGGCTCC; all phosphorothioate, sugars by position and methylation of C not given here)”, for which the pIC50 was approximately 5.52 in data set [1] and less than 5.00 in data set [2].

One may read the pIC50 as −log10 of the IC50, conventionally taken in molar units. Higher therefore signals a low IC50.
